Assay results reported in paper PMC9865752, “Design and Synthesis of (Z)-2-(Benzylamino)-5-benzylidenethiazol-4(5H)-one Derivatives as Tyrosinase Inhibitors and Their Anti-Melanogenic and Antioxidant Effects” (Molecules, 2023).
Where two headings read alike, the source gives them in different places.

Key:
[1] = DPPH radical scavenging assay; details: test samples 500 µM; DPPH 0.18 mM; 30 min in the dark
Method: DPPH is a light-sensitive compound containing free radicals. The DPPH assay is one of the most common methods for evaluating the antioxidant activity of a compound. The effects of BABT derivatives on DPPH radical scavenging activities were evaluated using L-ascorbic acid as a positive reference control. DPPH radical scavenging activities were measured after leaving the mixed samples (test samples of 500 µM plus DPPH solution of 0.18 mM) in the dark for 30 min. To determine the radical scavenging activities, the absorbance of the mixed samples was measured at 517 nm.
According to previously described methods, with minor modifications, the DPPH radical scavenging activities of BABT derivatives 1–14 were measured. A DPPH (0.2 mM) and methanol solution (180 µL) was mixed with 20 µL of a DMSO solution containing 5 mM BABT derivative, or with 20 µL of an aqueous solution of 5 mM L-ascorbic acid, in each well of a 96-well plate and kept at ambient temperature in the dark for 30 min. The optical density of each well was measured at 517 nm using a microplate reader (VersaMax; Molecular Devices). L-Ascorbic acid was used as a positive reference control, and the DPPH radical scavenging abilities of BABT derivatives were compared with those of L-ascorbic acid. All experiments were performed independently, thrice.

[2] = system: B16F10 cells; assay: Cell viability (EZ-Cytox assay); format: cell-based, murine; details: 0, 1, 2, 5, 10, 20 µM
Method: Before these experiments were performed, the influence of these derivatives on cytotoxicity in B16F10 cells was examined to determine their optimal concentration range for B16F10 cell experiments. The cytotoxicity of derivatives 7 and 8 at six concentrations (0, 1, 2, 5, 10, and 20 µM) was assessed using the EZ-Cytox assay.
Cytotoxicity assays in B16F10 cells were performed using the EZ-Cytox solution (EZ-3000, DoGenBio, Seoul, Republic of Korea). Briefly, B16F10 cells were seeded at a density of 1 × 10^4 cells per well and cultured at 37 °C in a 5% CO2 atmosphere for 24 h. […] Then, the EZ-Cytox solution (10 μL aliquot) was added to each well. After 2 h of incubation at 37 °C, the optical density of each well was measured at 450 nm using a microplate reader (VersaMax; Molecular Devices).

[3] = biological target: mushroom tyrosinase; assay: Mushroom tyrosinase inhibition assay; format: biochemical; details: for IC50: mean ± SEM of three experiments
Method: As mushroom tyrosinase is commercially available and relatively cheap, it is used as a tool for the identification of novel tyrosinase inhibitors. Here, we examined the tyrosinase inhibitory activities of the 14 BABT derivatives against mushroom tyrosinase in the presence of L-tyrosine or L-dopa as substrates.
Mushroom tyrosinase inhibitory activities of BABT derivatives were determined as described previously, with minor modifications. L-Tyrosine and L-dopa were used as substrates to evaluate the enzyme activity. […] Assay mixtures were incubated at 37 °C for 30 min, and dopachrome amounts synthesized were determined by measuring the optical density of each well at 475 nm using a microplate reader (VersaMax; Molecular Devices, Sunnyvale, CA, USA).

[4] = biological target: T1, mushroom tyrosinase (Agaricus bisporus, UniProt C7FF04); assay: Kinetic studies of mushroom tyrosinase inhibition (Lineweaver–Burk and Dixon plots); format: biochemical; details: substrate L-dopa
T1 construct: purchased
T1 sequence (C7FF04 1-392): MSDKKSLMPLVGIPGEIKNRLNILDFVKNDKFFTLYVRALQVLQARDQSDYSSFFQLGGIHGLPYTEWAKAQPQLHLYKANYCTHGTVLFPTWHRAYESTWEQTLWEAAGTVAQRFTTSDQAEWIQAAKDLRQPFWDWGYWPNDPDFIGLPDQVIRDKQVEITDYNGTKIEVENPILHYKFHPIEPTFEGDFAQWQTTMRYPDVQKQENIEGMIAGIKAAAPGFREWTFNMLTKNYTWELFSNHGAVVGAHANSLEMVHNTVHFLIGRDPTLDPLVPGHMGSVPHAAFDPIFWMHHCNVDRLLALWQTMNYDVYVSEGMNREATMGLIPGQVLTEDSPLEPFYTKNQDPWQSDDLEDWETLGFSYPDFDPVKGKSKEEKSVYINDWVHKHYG
Method: Kinetic studies using Lineweaver–Burk plots were performed using four different concentrations (0, 0.5, 1, and 2 µM) of the test derivatives (7 and 8) and five different concentrations (0.5, 1, 2, 4, and 8 mM for 7, and 1, 2, 4, 8, and 16 mM for 8) of L-dopa.
Lineweaver–Burk plots for 7 and 8 were transformed into the corresponding Dixon plots to determine their inhibition constant (Ki) values for the mushroom tyrosinase–inhibitor complex. […] The Ki values for the mushroom tyrosinase–inhibitor complex were obtained from the x-axis value of each convergence point.
Lineweaver–Burk plots of derivatives 7 and 8 were obtained in the presence of L-dopa as the substrate. Briefly, 20 µL aliquots of mushroom tyrosinase aqueous solution (200 units/mL) were added to each well of a 96-well plate containing 10 µL BABT derivative (7 or 8) DMSO solution (final concentrations: 0, 0.5, 1, and 2 µM) and 170 µL of an aqueous solution containing L-dopa (final concentrations: 1.0, 2.0, 4.0, 8.0, and 16.0 mM) and sodium phosphate buffer (pH 6.5, 17.2 mM). The initial rate of dopachrome formation was determined by examining the changes in absorbance at a wavelength of 475 nm (ΔOD475/min) using a microplate reader (VersaMax; Molecular Devices).

[5] = SIN-1-induced ROS scavenging assay; details: 20 µM; SIN-1 as ROS generator; DCFH-DA probe
Text: The scavenging activities of the BABT derivatives 1–14 against ROS and peroxynitrite (ONOO^−) were investigated because the antioxidant activities of the compounds may modulate melanogenesis. To measure the ROS scavenging activities of BABT derivatives, 2′,7′-dichlorodihydrofluorescein diacetate (DCFH-DA) and 3-morpholinosydnonimine (SIN-1) were used as a fluorogenic probe and ROS generator, respectively. The reaction of DCFH-DA with esterase produces 2′,7′-dichlorodihydrofluorescein (DCFH), which generates the fluorescent compound 2′,7′-dichlorofluorescein (DCF) by reacting with ROS produced by SIN-1. Therefore, ROS scavenging activities were determined by measuring the DCF fluorescence remaining after the BABT derivatives scavenged the ROS generated by SIN-1. […] BABT derivatives and Trolox, the positive control, were used at a concentration of 20 µM.
The ROS scavenging activities of the BABT derivatives were measured using an oxidant-sensitive fluorescent probe. Derivatives or Trolox (10 µL; final concentration: 20 µM) were seeded in a black 96-well plate. Then, 10 µL of SIN-1 (10 µM) was added to induce radical species generation and mixed with 180 µL of sodium phosphate buffer (pH 7.4) containing 12.5 µM DCF-DA and 600 units of esterase. Fluorescence intensity was measured at emission and excitation wavelengths of 535 and 485 nm, respectively, using a fluorescence microplate reader (Berthold Technologies GmbH & Co., Wien, Austria). Trolox was used as the positive control.

[6] = Peroxynitrite scavenging assay; details: 20 µM; SIN-1 as generator; DHR123 probe
Method: The effects of the BABT derivatives on peroxynitrite scavenging activities were also examined using SIN-1 as an RNS generator and dihydrorhodamine (DHR123) as an ROS indicator. DHR123 was converted to fluorescent rhodamine 123 by peroxynitrite generated by SIN-1. Therefore, the peroxynitrite scavenging activities of 1–14 were assessed by measuring the fluorescence of rhodamine 123. BABT derivatives and penicillamine, the positive control, were used at a concentration of 20 µM.
The peroxynitrite scavenging activities of the BABT derivatives were assessed using the method developed by Kooy, involving the monitoring of highly fluorescent rhodamine 123, which was rapidly produced from non-fluorescent DHR123 in the presence of peroxynitrite. Rhodamine buffer (pH 7.4) was composed of 50 mM sodium phosphate dibasic, 50 mM sodium phosphate monobasic, 90 mM sodium chloride, 5 mM potassium chloride, and 100 µM DTPA. A 10 µL aliquot of BABT derivatives or PCA (final concentration: 20 µM) was seeded in a black 96-well plate. Then, 10 µL of SIN-1 (10 µM) was added to induce radical species generation and mixed with 180 µL of rhodamine buffer. Fluorescence intensity was measured at emission and excitation wavelengths of 535 and 485 nm, respectively, using a fluorescence microplate reader (Berthold Technologies GmbH & Co.). PCA was used as the positive control.

[7] = ABTS radical scavenging assay; details: test samples 100 µM; 2 min in the dark
Method: An antioxidant assay using ABTS is also commonly used to assess the antioxidant activities of compounds. Donation of one electron from ABTS to potassium persulfate generates the ABTS radical cation. An ABTS radical scavenging activity assay was performed using 100 µM of BABT derivatives or Trolox (a positive reference control) by mixing test samples with ABTS radical cations obtained from a reaction of potassium persulfate and ABTS. ABTS radical scavenging activity was assessed by measuring the optical density at 734 nm after leaving the test sample–ABTS radical cation mixture in the dark for 2 min.
According to a previously described method, with minor modifications, the ABTS radical scavenging activities of BABT derivatives 1–14 were assessed. Briefly, an ABTS radical solution was prepared by mixing 10 mL of aqueous ABTS solution (7 mM) with 10 mL of potassium persulfate aqueous solution (2.45 mM), and the mixture was kept for 11–15 h in the dark at room temperature until the absorbance remained constant. Prior to the antioxidant assay experiments, the ABTS radical solution was diluted with water to adjust the absorbance at 734 nm to 0.70 ± 0.02. A 10 µL aliquot of BABT derivatives or Trolox at a concentration of 1000 µM was added to 90 µL of ABTS+ free radical solution in each well of a 96-well plate and incubated for 2 min in the dark at ambient temperature. The absorbance of each well was measured at 734 nm using a microplate reader (VersaMax; Molecular Devices). The ABTS+ radical scavenging activities of BABT derivatives were compared to those of Trolox. All experiments were carried out independently, thrice.

[8] = biological target: mushroom tyrosinase; set-up: method as in PMID 26235587; details: in the presence of L-tyrosine; cited from earlier work
[9] = substrate L-tyrosine, read-out: IC50 (µM) L-Tyrosine

Compound | DPPH radical scavenging activity, % inhibition [1] | IC50 [3, 9] | ROS scavenging activity (in words) [5] | ABTS radical scavenging activity, % inhibition [7] | also measured
COc1ccc(/C=C2\SC(NCc3ccccc3)=NC2=O)cc1O [Compound 7, (Z)-2-(benzylamino)-5-(3-hydroxy-4-methoxybenzylidene)thiazol-4(5H)-one] | 47% | 10 ± 0.9 µM | moderate ROS scavenging activities | – | cytotoxicity ([2]; 72 h): showed cytotoxicity at a concentration of 20 µM; cytotoxicity ([2]; up to 48 h): not cytotoxic at all concentrations; IC50 ([3]; substrate L-dopa, read-out: IC50 (µM) L-Dopa): 10.3 ± 0.24 µM; fold stronger tyrosinase inhibitory activity than derivative 5 ([3]; substrate L-tyrosine): 14.8 fold; Ki ([4]; Dixon plots, read-out: inhibition constant (Ki) for the mushroom tyrosinase–inhibitor complex): 3.1 µM; mode of inhibition ([4]; Lineweaver–Burk plots): competitive inhibitors
O=C1N=C(NCc2ccccc2)S/C1=C\c1ccc(O)c(O)c1 [Compound 9, (Z)-2-(benzylamino)-5-(3,4-dihydroxybenzylidene)thiazol-4(5H)-one] | 89% | > 300 µM | strongly reduced the ROS levels enhanced by SIN-1 | 87% | fold more potent than kojic acid ([3]; substrate L-dopa): 2 fold; peroxynitrite scavenging activity (in words) [6]: strong ROS and peroxynitrite scavenging activities
O=C1N=C(Nc2nc3ccccc3s2)S/C1=C\c1ccc(O)cc1O [MHY2081] | – | – | – | – | IC50 [8]: 1.8 µM
Cc1c(C)c2c(c(C)c1O)CCC(C)(C(=O)O)O2 (stereo not drawn) [Trolox, reference compound] | – | – | reduced the ROS levels enhanced by SIN-1 | 99% | –
